# Patent US12502440B2, “Cross-linking compounds and methods of use thereof” (North Carolina State University, priority 2019, dated 2025)
# “And” between values parts separate entries of the source, which are not always exact repeats. Equal values may be shown once.
# Assays:
# Format in all cases: biochemical
# [1] = molecular target: T1, β-glucosidase from Agrobacterium (Agrobacterium sp., UniProt P12614); experiment: Indigogenic reaction with β-glucosidase from Agrobacterium
# T1 construct: purchased Megazyme
# T1 sequence (P12614 1-459): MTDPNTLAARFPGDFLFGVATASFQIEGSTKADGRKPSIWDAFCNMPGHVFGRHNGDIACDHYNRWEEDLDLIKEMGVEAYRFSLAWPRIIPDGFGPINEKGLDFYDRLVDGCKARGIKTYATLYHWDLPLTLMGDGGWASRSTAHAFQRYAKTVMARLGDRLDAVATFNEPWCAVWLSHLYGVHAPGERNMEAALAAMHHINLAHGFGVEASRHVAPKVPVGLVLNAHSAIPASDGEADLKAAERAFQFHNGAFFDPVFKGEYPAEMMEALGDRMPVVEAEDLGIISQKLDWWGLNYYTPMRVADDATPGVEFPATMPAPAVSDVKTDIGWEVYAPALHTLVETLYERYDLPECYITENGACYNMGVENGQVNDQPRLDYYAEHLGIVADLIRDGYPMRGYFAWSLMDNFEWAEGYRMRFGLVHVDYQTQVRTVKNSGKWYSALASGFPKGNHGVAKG
# Experimental: Next, the β-glucosidase from Agrobacterium sp. was investigated as the trigger enzyme for indigoid dye formation. […] The reaction was carried out using the enzyme (200 nM) and indoxyl-glucoside 33 (100 μM) in phosphate buffer (pH 4-9, containing 2% DMF) at 37° C. […] Note that with 200 nM enzyme and 100 μM substrate, complete reaction requires 500 turnovers of each enzyme.
# Reactions with β-glucosidase from Agrobacterium. An indoxyl compound in DMF (2 μL, 5 mM) and β-glucosidase from Agrobacterium in 10 mM phosphate buffer [2 μL, 10 μM, pH 7.0, containing 50 mM NaCl and 0.6 M (NH4)2SO4] were mixed with 50 mM phosphate buffer (96 μL, pH 7.0). The reaction mixture was incubated at 37° C. for 2 h and then centrifuged for 3 min. Any precipitate was separated from the supernatant and dissolved in DMF (200 μL). The resulting solution was analyzed by absorption spectroscopy. The experiment was repeated three times.
# rat liver homogenate = experiment: Indigoid-dye formation in rat liver homogenate; conditions: indoxyl 1 mM in rat liver homogenate, 5% DMF, 37° C., 24 h; ε = 1.27 × 10^4 M^−1 cm^−1 measured for 4
# Experimental: Finally, indigoid-dye formation was carried out in rat liver homogenate (Table 1, rightmost column).
# Reactions in rat liver homogenate. An indoxyl compound in DMF (5 μL, 20 mM) was mixed with rat liver homogenate (95 μL). The reaction mixture was incubated at 37° C. for 24 h. After allowing to cool to room temperature, the reaction mixture was diluted with DMF (900 μL). The mixture was heated at 70° C. for 2 min and then centrifuged for 2 min. The supernatant was separated from any precipitate. This extraction procedure was repeated two or three times with DMF (100-500 μL). The combined supernatant (1500-1800 μL) was analyzed by absorption spectroscopy.
# [2] = system: β-glucosidase from almonds; experiment: Indigogenic reaction with β-glucosidase from almonds
# [3] = indoxyl 100 μM, enzyme 200 nM, 0.05M phosphate buffer pH 7.0, 2% DMF, 37° C., 2 h, three repeats, ε = 1.27 × 10^4 M^−1 cm^−1 measured for 4
# [4] = indoxyl 1 mM, enzyme 1 unit/mL, 0.01M acetate buffer pH 5, 5% DMF, 37° C., 16-19 h, ε = 1.27 × 10^4 M^−1 cm^−1 measured for 4
# [5] = as E4 but ε measured for 43 (footnote g)
# [6] = as E1 but ε measured for 43 (footnote g)
compound,measurement,setting,value
"COC(=O)COc1ccc2[nH]cc(O[C@@H]3O[C@H](CO)[C@@H](O)[C@H](O)[C@H]3O)c2c1Br [compound 23, 4-Bromo-5-(methoxycarbonyl)methoxy-1H-indol-3-yl β-D-glucopyranoside]","Yield (%) of indigoid dye, β-glucosidase from Agrobacterium",[1]; [3],84 ± 4%
same,"Yield (%) of indigoid dye, rat liver homogenate",rat liver homogenate,<5%
same,"Yield (%) of indigoid dye, β-glucosidase from almonds",[2]; [4],68%
"COC(=O)COc1ccc2[nH]cc(OC3O[C@H](CO)[C@@H](O)[C@H](O)[C@H]3O)c2c1 (stereo partly drawn) [compound 22, 5-(Methoxycarbonyl)methoxy-1H-indol-3-yl-D-glucopyranoside]","Yield (%) of indigoid dye, β-glucosidase from Agrobacterium",[1]; [3],30 ± 6%
same,"Yield (%) of indigoid dye, rat liver homogenate",rat liver homogenate,<5%
same,"Yield (%) of indigoid dye, β-glucosidase from almonds",[2]; [4],<1%
"C#CCOc1c(Br)cc2[nH]cc(O[C@@H]3O[C@H](CO)[C@@H](O)[C@H](O)[C@H]3O)c2c1Br [compound 27, 4,6-Dibromo-5-propargyloxy-1H-indol-3-yl β-D-glucopyranoside]","Yield (%) of indigoid dye, β-glucosidase from Agrobacterium",[1]; [5],89 ± 2%
same,"Yield (%) of indigoid dye, β-glucosidase from Agrobacterium",[1]; [3],184 ± 3%
same,"Yield (%) of indigoid dye, rat liver homogenate",rat liver homogenate,50%
same,"Yield (%) of indigoid dye, β-glucosidase from almonds",[2]; [6],51%
same,"Yield (%) of indigoid dye, β-glucosidase from almonds",[2]; [4],105%
"COc1nc(Oc2ccc3[nH]cc(O[C@@H]4O[C@H](CO)[C@@H](O)[C@H](O)[C@H]4O)c3c2)nc(N2CCOCC2)n1 [compound 19, 5-[(4-Methoxy-6-morpholino-1,3,5-triazin-2-yl)oxy]-1H-indole-3-yl β-D-glucopyranoside]","Yield (%) of indigoid dye, β-glucosidase from Agrobacterium",[1]; [3],46 + 5%
same,"Yield (%) of indigoid dye, rat liver homogenate",rat liver homogenate,<5%
same,"Yield (%) of indigoid dye, β-glucosidase from almonds",[2]; [4],<1%
"COc1nc(Oc2ccc3[nH]cc(O[C@@H]4O[C@H](CO)[C@@H](O)[C@H](O)[C@H]4O)c3c2Br)nc(N2CCOCC2)n1 [compound 20, 4-Bromo-5-[(4-methoxy-6-morpholino-1,3,5-triazin-2-yl)oxy]-1H-indole-3-yl β-D-glucopyranoside]","Yield (%) of indigoid dye, β-glucosidase from Agrobacterium",[1]; [3],150 ± 3%
same,"Yield (%) of indigoid dye, rat liver homogenate",rat liver homogenate,<5%
"C#CCOc1ccc2[nH]cc(O[C@@H]3O[C@H](CO)[C@@H](O)[C@H](O)[C@H]3O)c2c1Br [compound 26, 4-Bromo-5-propargyloxy-1H-indol-3-yl β-D-glucopyranoside]","Yield (%) of indigoid dye, β-glucosidase from Agrobacterium",[1]; [3],79 ± 1%
same,"Yield (%) of indigoid dye, rat liver homogenate",rat liver homogenate,17%
same,"Yield (%) of indigoid dye, β-glucosidase from almonds",[2]; [4],56%
"5-bromo-4-chloroindoxyl β-glucoside [compound 42, reference compound]","Yield (%) of indigoid dye, β-glucosidase from Agrobacterium","[1]; as E4 but ε = 2.00 × 10^4 M^−1 cm^−1 reported for 5,5′-dibromo-4,4′-dichloroindigo (footnote e)",116% and 116 ± 8^e %
same,"Yield (%) of indigoid dye, rat liver homogenate",rat liver homogenate,65%
same,"Yield (%) of indigoid dye, β-glucosidase from almonds","[2]; as E1 but ε = 2.00 × 10^4 M^−1 cm^−1 reported for 5,5′-dibromo-4,4′-dichloroindigo (footnote e)",74% and 74^e %
5-[(Benzylcarbamoyl)oxy)]-1H-indole-3-yl β-D-glucopyranoside [compound 16],"Yield (%) of indigoid dye, rat liver homogenate",rat liver homogenate,9%
same,"Yield (%) of indigoid dye, β-glucosidase from almonds",[2]; [4],24%
"OC[C@H]1O[C@@H](Oc2c[nH]c3cc(Br)c(OC[C@@H]4[C@@H]5CCC#CCC[C@@H]54)c(Br)c23)[C@H](O)[C@@H](O)[C@@H]1O [compound 30, 5-{[(1R,8S,9s)-Bicyclo[6.1.0]non-4-yn-9-yl]methoxy}-4,6-dibromo-1H-indole-3-yl β-D-glucopyranoside]","Yield (%) of indigoid dye, β-glucosidase from Agrobacterium",[1]; [5],10% and 10 ± 0.4%
same,"Yield (%) of indigoid dye, β-glucosidase from Agrobacterium",[1]; [3],21 ± 1%
"COc1nc(Oc2c(Br)cc3[nH]cc(O[C@@H]4O[C@H](CO)[C@@H](O)[C@H](O)[C@H]4O)c3c2Br)nc(N2CCOCC2)n1 [compound 21, 4,6-Dibromo-5-[(4-methoxy-6-morpholino-1,3,5-triazin-2-yl)oxy]-1H-indole-3-yl β-D-glucopyranoside]","Yield (%) of indigoid dye, β-glucosidase from Agrobacterium",[1]; [5],31 ± 2%
same,"Yield (%) of indigoid dye, β-glucosidase from Agrobacterium",[1]; [3],63 ± 4%
same,"Yield (%) of indigoid dye, rat liver homogenate",rat liver homogenate,<5%
"COC(=O)COc1c(Br)cc2[nH]cc(O[C@@H]3O[C@H](CO)[C@@H](O)[C@H](O)[C@H]3O)c2c1Br [compound 24, 4,6-Dibromo-5-(methoxycarbonyl)methoxy-1H-indol-3-yl β-D-glucopyranoside]","Yield (%) of indigoid dye, β-glucosidase from Agrobacterium",[1]; [5],102 + 3%
same,"Yield (%) of indigoid dye, β-glucosidase from Agrobacterium",[1]; [3],209 ± 6%
same,"Yield (%) of indigoid dye, rat liver homogenate",rat liver homogenate,<5%
same,"Yield (%) of indigoid dye, β-glucosidase from almonds",[2]; [6],59%
same,"Yield (%) of indigoid dye, β-glucosidase from almonds",[2]; [4],122%
"C#CCOc1ccc2[nH]cc(O[C@@H]3O[C@H](CO)[C@@H](O)[C@H](O)[C@H]3O)c2c1 [compound 25, 5-Propargyloxy-1H-indol-3-yl β-D-glucopyranoside]","Yield (%) of indigoid dye, β-glucosidase from Agrobacterium",[1]; [3],37 ± 2%
same,"Yield (%) of indigoid dye, rat liver homogenate",rat liver homogenate,11%
same,"Yield (%) of indigoid dye, β-glucosidase from almonds",[2]; [4],<5%
